{"source": "paper PMC12374030", "about": "“Hydroxyalkyne–Bithiophene Derivatives: Synthesis and Antileishmanial Activity” (Chemical Biology & Drug Design, 2025)", "key": {"[1]": {"tested_on": "L. amazonensis promastigotes", "test": "Mitochondrial membrane potential (Rh123, flow cytometry)", "type": "cell-based, Leishmania amazonensis", "settings": "for Mitochondrial potential: Average (Median): 24 h, Rh123 fluorescence", "experimental": "Promastigotes at 1 × 10^6 parasites mL^−1 treated with BT‐1 for 24 h were incubated with 5 μg mL^−1 Rh123, a fluorescent probe that accumulates in mitochondria, for 15 min (Menna‐Barreto, Corrêa, et al. [2009]; Menna‐Barreto, Goncalves, et al. [2009]). As a positive control, 100 μM CCCP was used. The data acquisition and analysis were performed using a FACSCalibur flow cytometer (BD Biosciences, Franklin Lakes, NJ, USA) equipped with CellQuest software. A total of 10,000 events were acquired in the region corresponding to the parasites."}, "[2]": {"tested_on": "L. amazonensis promastigotes", "test": "Lipid bodies accumulation (Nile red)", "type": "cell-based, Leishmania amazonensis", "experimental": "Promastigotes at 1 × 10^6 parasites mL^−1 treated with BT‐1 for 24 h were incubated with 10 μg mL^−1 Nile red, a lipophilic stain, for 30 min at 25°C. The fluorescence was measured in a Victor X3 spectrofluorimeter (PerkinElmer, Waltham, MA, USA) at λex of 485 nm and λem of 535 nm (Stefanello et al. [2014])."}, "[3]": {"tested_on": "J774A.1 macrophages", "test": "Cytotoxicity assay in macrophages (MTT)", "type": "cell-based", "settings": "at 23.2 μM (IC50 against promastigotes)"}, "[4]": {"test": "Cytotoxicity assay in macrophages (MTT)", "type": "cell-based", "settings": "mouse, J774A.1 macrophages, pH 7.2", "experimental": "L. amazonensis MHOM/BR/75/Josefa strain was originally isolated from a human case of CL by Dr. Cesar A. Cuba at the University of Brasilia, Brazil (Saraiva et al. [1983]; Cuba et al. [1985]). Promastigote forms of this strain were maintained axenically in Warren's medium (brain–heart infusion plus hemin and folic acid; pH 7.2) supplemented with 10% heat‐inactivated FBS and maintained at 25°C. J774A.1 macrophages (obtained from the Cell Bank of Rio de Janeiro, RJ, Brazil) were maintained in RPMI‐1640 medium (pH 7.2), supplemented with sodium bicarbonate, L‐glutamine, 10% FBS, and streptomycin and penicillin at 37°C in a 5% CO2 atmosphere.\nCytotoxicity was evaluated in the J774A.1 macrophages. Macrophages (5 × 10^5 cells mL^−1) were cultured in 96‐well microplates containing RPMI‐1640 medium supplemented with 10% FBS. The plates were incubated at 37°C in a 5% CO2 atmosphere for confluent growth of the cells. After 24 h, the compounds were added to each well at increasing concentrations (31.25–1000 μM) and incubated for 48 h at 37°C in a 5% CO2 atmosphere. The cytotoxicity was evaluated by MTT (2 mg mL^−1), as previously described (Mosmann [1983]). Absorbance was read in a microplate spectrophotometer (PowerWave XS; BioTek, […], VT, USA) at 570 nm."}, "[5]": {"tested_on": "L. amazonensis promastigotes", "test": "Reactive oxygen species production (H2DCFDA)", "type": "cell-based, Leishmania amazonensis", "experimental": "Promastigotes at 1 × 10^6 parasites mL^−1 treated with BT‐1 for 24 h were incubated with 10 μM H2DCFDA in the dark for 45 min. As a positive control, 50 μM H2O2 was used. The fluorescence was determined by oxidation of H2DCFDA to the fluorescent product, 2′‐7ʹ dichlorofluorescein (DCF), which was measured in a Victor X3 spectrofluorimeter (PerkinElmer, Waltham, MA, USA) at λex of 488 nm and λem of 530 nm (Shukla et al. [2012])."}, "[6]": {"tested_on": "L. amazonensis promastigotes", "test": "Lipid peroxidation assay (DPPP)", "type": "cell-based, Leishmania amazonensis", "experimental": "Promastigotes at 1 × 10^6 parasites mL^−1 treated with BT‐1 for 24 h were incubated with 50 μM DPPP for 15 min at 22°C. As a positive control, 50 μM H2O2 was used. The fluorescence was determined in a Victor X3 spectrofluorimeter (PerkinElmer, Waltham, MA, USA) at λex of 355 nm and λem of 460 nm. DPPP is essentially nonfluorescent until it is oxidized to a phosphine oxide (DPPP‐O) by peroxides (Okimoto et al. [2000])."}, "[7]": {"tested_on": "L. amazonensis promastigotes", "test": "Cell size (FSC-H, flow cytometry)", "type": "cell-based, Leishmania amazonensis", "settings": "2 × IC50, 24 h", "experimental": "Promastigotes at 1 × 10^6 parasites mL^−1 treated with BT‐1 for 24 h were washed twice and resuspended in phosphate‐buffered saline (PBS), then analyzed using a FACSCalibur flow cytometer (BD Biosciences, Franklin Lakes, NJ, USA) equipped with CellQuest software. As a positive control, […] actinomycin D was used. A total of 10,000 events were acquired in the region that corresponded to the parasites. Histograms were generated for each sample, where the forward light scatter (FSC‐H) represents the cell volume (Lazarin‐Bidóia et al. [2013])."}, "[8]": {"tested_on": "L. amazonensis promastigote forms", "test": "Antiproliferative assay (XTT)", "type": "cell-based, Leishmania amazonensis", "experimental": "L. amazonensis MHOM/BR/75/Josefa strain was originally isolated from a human case of CL by Dr. […]. Cuba at the University of Brasilia, Brazil (Saraiva et al. [1983]; Cuba et al. [1985]). […] The activity against promastigotes was evaluated by XTT (0.5 mg mL^-1), as previously described (Meshulam et al. [1995]). Absorbance was read in a microplate spectrophotometer (PowerWave XS; BioTek, Winooski, VT, USA) at 450 nm."}, "[9]": {"tested_on": "L. amazonensis promastigote forms", "test": "Morphological and ultrastructural changes (SEM, TEM)", "type": "cell-based, Leishmania amazonensis", "settings": "IC50 or 2 × IC50, 72 h", "experimental": "After this, the parasites were fixed in a solution of 2.5% glutaraldehyde in 0.1 M cacodylate buffer for 24 h at 4°C. For scanning electron microscopy (SEM), the parasites were dehydrated in increasing concentrations of ethanol, critical point‐dried in CO2, sputter‐coated with gold, and observed in a Quanta 250 scanning electron microscope (FEI Company, Hillsboro, OR, USA). For transmission electron microscopy (TEM), the parasites were fixed as described for SEM. After this, the parasites were postfixed in a solution of 1% OsO4, 0.8% K4[Fe(CN)6], and 10 mM CaCl2 in 0.1 M cacodylate buffer. The samples were dehydrated in increasing concentrations of acetone and embedded in Poly/Bed 812 resin. Ultrathin sections were then obtained, contrasted with uranyl acetate and lead citrate, and observed in a JEM 1400 transmission electron microscope (JEOL Ltd., Tokyo, Japan)."}, "[10]": {"tested_on": "L. amazonensis promastigotes", "test": "Cell membrane integrity (PI, flow cytometry)", "type": "cell-based, Leishmania amazonensis", "experimental": "Promastigotes at 1 × 10^6 parasites mL^−1 treated with BT‐1 for 24 h were incubated with 0.2 μg mL^−1 PI for 10 min. As a positive control, 40 μM digitonin was used. The data acquisition and analysis were performed using a FACSCalibur flow cytometer (BD Biosciences, Franklin Lakes, NJ, USA) equipped with CellQuest software. A total of 10,000 events were acquired in the region that corresponded to the parasites. Alterations in PI fluorescence were quantified as the percentage increase in fluorescence compared with the untreated parasites (Lazarin‐Bidóia et al. [2013])."}, "[11]": {"tested_on": "L. amazonensis promastigotes", "test": "Cell cycle (PI-RNAse A, flow cytometry)", "type": "cell-based, Leishmania amazonensis", "settings": "IC50, 24 h", "experimental": "Promastigotes at 1 × 10^6 parasites mL^−1 treated with BT‐1 for 24 h were fixed in 70% cold methanol in PBS at 4°C for 2 h. Afterward, the parasites were washed in PBS, 10 μg mL^−1 PI‐RNAse A was added, and the samples were incubated at 37°C for 45 min. The data acquisition and analysis were performed using a FACSCalibur flow cytometer (BD Biosciences, Franklin Lakes, NJ, USA) equipped with CellQuest software. A total of 10,000 events were acquired in the region that corresponded to the parasites. As a positive control, 40 μM miltefosine was used. The percentages of cells in each stage of the cell cycle were determined based on the intensity of the PI fluorescence, which is directly proportional to the DNA content."}, "[12]": {"tested_on": "Leishmania amazonensis promastigote", "design": "method as in Takahashi et al. [2011]", "settings": "previous work; ref Takahashi et al. [2011]; cited from earlier work"}, "[13]": {"tested_on": "Leishmania amazonensis amastigote", "design": "method as in Takahashi et al. [2011]", "settings": "previous work; ref Takahashi et al. [2011]; cited from earlier work"}}, "data": [{"smiles": "CCC(O)C#Cc1ccc(-c2ccc(C=O)s2)s1", "note": "(stereo not shown) [Compound 1]", "values": [{"measurement": "Mitochondrial potential: Average (Median)", "setting": "[1]; 23.2 μM (IC50)", "result": 1841.42}, {"measurement": "Mitochondrial potential: Average (Median)", "setting": "[1]; 46.4 μM (2 × IC50)", "result": 796.77}, {"measurement": "reduction of mitochondrial potential compared with the untreated control", "setting": "[1]; 2 × IC50, 24 h", "result": 2.75, "unit": "fold"}, {"measurement": "increase in lipid body accumulation vs untreated control", "setting": "[2]; 2 × IC50, 24 h", "result": 1.5, "unit": "fold"}, {"measurement": "increase in lipid body accumulation vs untreated control", "setting": "[2]; IC50, 24 h", "result": 1.4, "unit": "fold"}, {"measurement": "toxicity to J774A.1 macrophages", "setting": "[3]", "result": "no toxicity"}, {"measurement": "CC50 at 48 h", "setting": "[4]", "result": "216 ± 5.1", "unit": "µM"}, {"measurement": "increase in the production of total ROS vs untreated control", "setting": "[5]; 2 × IC50, 24 h", "result": 9.0, "unit": "fold"}, {"measurement": "increase in the production of total ROS vs untreated control", "setting": "[5]; IC50, 24 h", "result": 3.0, "unit": "fold"}, {"measurement": "increase in lipoperoxidation vs untreated control", "setting": "[6]; 2 × IC50, 24 h", "result": 8.0, "unit": "fold"}, {"measurement": "increase in lipoperoxidation vs untreated control", "setting": "[6]; IC50, 24 h", "result": 3.0, "unit": "fold"}, {"measurement": "decrease in cell size compared with the untreated control", "setting": "[7]", "result": 1.45, "unit": "fold"}, {"measurement": "IC50", "setting": "[8]; Leishmania amazonensis, 72 h, 25°C, XTT, read-out: L. amazonensis (promastigotes) IC50", "result": "23.2 ± 1.1", "unit": "µM"}, {"measurement": "Selectivity index (SI)", "setting": "[8]; ratio between the CC50 (J774A.1 macrophages) and IC50 (promastigotes)", "result": 9.33}, {"measurement": "morphological alterations by SEM", "setting": "[9]", "result": "rounded shape and a reduction in cell body size, cell surface roughness, a shorter flagellum, and extravasation of cytoplasmic content"}, {"measurement": "ultrastructural alterations by TEM", "setting": "[9]", "result": "presence of lipid bodies, loss of cell content, disorganization of the nucleus, a large amount of exocytic activity, and mitochondrial swelling"}, {"measurement": "increase of PI-stained cells vs untreated control", "setting": "[10]; 2 × IC50, 24 h", "result": 11.13, "unit": "fold"}, {"measurement": "increase of PI-stained cells vs untreated control", "setting": "[10]; IC50, 24 h", "result": 3.48, "unit": "fold"}, {"measurement": "increase of cells in G0/G1 phase", "setting": "[11]", "result": 1.3, "unit": "fold"}, {"measurement": "increase of cells in sub-G0/G1 phase", "setting": "[11]", "result": 2.22, "unit": "fold"}]}, {"smiles": "CC(=O)OCCC#Cc1ccc(-c2ccc(C)s2)s1", "note": "[I, 5′‐methyl‐(5‐[4‐acetoxy‐1‐butynyl])‐2,2′‐bithiophene]", "values": [{"measurement": "IC50 promastigote", "setting": "[12]", "result": "21.3 ± 4.4", "unit": "µg/mL"}, {"measurement": "IC50 amastigote", "setting": "[13]", "result": "28.7 ± 2.6", "unit": "µg/mL"}]}]}
